Assay results taken from patent publication US20240300934A1, “COMPOUNDS FOR MODULATING MYCOBACTERIUM TUBERCULOSIS RESPONSE” (priority 2021, published 2024).
Values after ≈ are worked out from the molar mass of the structure shown. Like-named read-outs stand apart in the source and are kept apart here. Marks after values point to notes of the source that are not given here.

Assays:
[1] = test system: rv2390c′::GFP reporter Mtb strain; format: cell-based, Mycobacterium tuberculosis; details: for rv2390c′::GFP Cl− response phenotype: compared to C6
Mtb in J774 cells = test: Mtb growth in J774 macrophage-like cells (mKO fluorescence); format: cell-based, Mycobacterium tuberculosis; details: for % Reduction of Intracellular Infection (J774.1 cells) at 10 μM cmpd: 10 μM compound; for Inhibition of Mtb growth in J774 cells phenotype: compared to C6
Experimental: For the tertiary screen of selected hit compounds in J774 murine macrophage-like cells, 30,000 J774 cells/well were seeded in bar-coded 384-well black, clear bottom plates in a 30 μl volume in J774 infection media (DMEM+10% FBS+1 mM sodium pyruvate+2 mM L-glutamine) using a ThermoFisher Multidrop Combi reagent dispenser, one day prior to assay start. On the day of the assay, log-phase Mtb constitutively expressing mKO were pelleted and resuspended in 1 ml basal uptake buffer (0.5% bovine serum albumin+25 mM dextrose+0.5 mM MgCl2+1 mM CaCl2+0.1% gelatin in phosphate buffered saline (PBS), passed 6× though a tuberculin syringe with a 25 G×5/8″ needle, then resuspended in J774 infection media to a final OD600=0.2. 10 μl of this bacterial suspension was added to each well of the 384-well plates containing the J774 cells, followed by addition of 10 μl of the appropriate compounds (pre-aliquoted in v-bottom plates in a 1:1 mix of PBS:J774 infection media). Addition of Mtb and compounds were conducted using a Janus Ministation. For each test plate, two columns of controls (16 wells each) were included, with one column consisting of treatment with DMSO as a carrier control (negative control), and the other column consisting of treatment with 5 μM rifampicin (positive control). This tertiary assay was done as a dose-response assay in duplicate runs, with compounds tested beginning at a final concentration of 20 μM and two-fold dilutions down to 0.039 μM. Plates were kept in humidified ziplock bags in a 37° C., 5% CO2 incubator. 6 days post-infection, mKO fluorescence signal was read using a PerkinElmer EnVision multimode plate reader (bottom read filter, excitation 530/8 nm, Bodipy TMR D555 single mirror, emission 579/25 nm). mKO fluorescence in DMSO-treated control samples were defined as 100% growth, and fluorescence observed in treatment conditions calculated as a percentage from that set value.
For J774 infection in 96-well plates, 180,000 J774 cells were seeded per well in 180 μl of J774 infection media one day prior to infection. On the day of the assay, log-phase Mtb constitutively expressing mKO were pelleted and resuspended in 1 ml basal uptake buffer, passed 6× though a tuberculin syringe with a 25 G×5/8″ needle, then resuspended in J774 infection media to a final OD600=0.2. Media was removed from 96-well plate containing the J774 cells, with 140 μl of fresh J774 infection media added back to each well. 40 μl of the Mtb suspension at OD600=0.2 was added to each well, followed by addition of appropriate concentration of compound or DMSO in a 20 μl final volume in J774 infection media (compound final concentration 10 μM, rifampicin final concentration 5 μM, DMSO final concentration 0.1%/well). Bacterial mKO fluorescence was read immediately after infection using a Biotek Synergy Neo2 microplate reader (bottom read monochromator, excitation 543/10 nm, emission 565/10 nm), and again 6 days post-infection. Plates were kept in humidified ziplock bags in a 37° C., 5% CO2 incubator. mKO fluorescence in DMSO-treated control samples were defined as 100% growth, and fluorescence observed in treatment conditions calculated as a percentage from that set value.

[2] = test system: Mtb in bone marrow-derived macrophages (BMDMs); test: Mtb growth in primary murine bone marrow-derived macrophages (CFU); format: cell-based, Mycobacterium tuberculosis; details: 10 μM; added 2 hrs post-infection; eight-day time-course
Experimental: C57BL/6J wild type mice (Jackson Laboratories) were used for extraction of bone marrow-derived macrophages. Cells were harvested and expanded in DMEM containing 10% FBS, 15% L-cell conditioned media, 2 mM L-glutamine, 1 mM sodium pyruvate, and penicillin/streptomycin as needed in a 37° C. incubator in a 5% CO2 atmosphere. […] Macrophages were lysed with water containing 0.01% sodium dodecyl sulfate and a dilution series of the samples plated on 7H10 agar for CFU determination.

[3] = Kinetic aqueous solubility in pH 7.4 PBS; format: physicochemical; details: read-out: Kinetic Aqueous Solubility S
Experimental: (§1) Assays examining mouse and human liver microsomal stability, kinetic aqueous solubility, mouse and human plasma protein binding and stability, and human cytochrome P450 inhibition characteristics of the compounds were run by BioDuro, Incorporated, using standard protocols as previously described (Wang et al, 2020). hERG inhibition assays were also performed by BioDuro, Incorporated.

[4] = Mouse liver microsomal stability; format: in vitro ADME; details: mouse liver microsomes; for half-life: read-out: MLM t1/2
Experimental: as §1

[5] = Mouse pharmacokinetics, single oral dose; format: in vivo, CD-1 mice; details: for Kp at 5 h / AUC(0-t): female, single 25 mg/kg po dose; for Kp at 5 h: CD-1, mouse, lung vs plasma, read-out: Mouse PK Clung/Cplasma at t = 5 h; for AUC(0-t): mouse, CD-1 mice, read-out: Mouse PK AUC0-5h
Experimental: Blood samples were collected in K2EDTA coated tubes pre-dose, 0.5, 1, 3 and 5 hrs post-dose, placed on ice, and centrifuged to recover plasma. The recovered plasma was kept at −80° C. as needed prior to analysis, which was performed as previously described (Wang et al, 2020). In brief, a Sciex Applied Biosystems Qtrap 4000 triple-quadrupole mass spectrometer coupled to an Agilent 1260 HPLC system was used for HPLC coupled to tandem mass spectrometry (LC-MS/MS) quantitative analysis of the samples, with chromatography attained using an Agilent Zorbax SB-C8 column (2.1×30 mm; particle size, 3.5 μm) and a reverse phase gradient elution. The aqueous mobile phase consisted of Milli-Q deionized water with 0.1% formic acid (A), while the organic mobile phase was 0.1% formic acid in acetonitrile (B). The gradient set-up was as follows: 5-90% B over 2 mins, 1 min at 90% B, then an immediate drop to 5% B and an additional 1 min at 5% B. Quantification of molecules was carried out via multiple-reaction monitoring of parent/daughter transitions in electrospray positive-ionization mode, and sample analyses accepted if quality control and standard samples had concentrations within 20% of the nominal concentration. Preparation of compounds for generation of standard curves and quality control spiking solutions were performed as previously described (Wang et al, 2020). Data were processed using Analyst software (Version 1.6.2; Applied Biosystems Sciex).

Mtb [6] = test: C3HeB/FeJ murine Mtb infection model; format: in vivo, C3HeB/FeJ mice; details: 150 mg/kg, 5 days/week oral gavage for 2 weeks, started 2 or 6 weeks post-infection
Experimental: C3HeB/FeJ wild type mice (Jackson Laboratories) were infected intranasally with 10^3 CFUs of Mtb (35 μl), under light anesthesia with 2% isoflurane (MacGilvary et al, 2019; Sukumar et al, 2014; Tan et al, 2013). […] The next day the suspension was homogenized by bead beating with 5 mm steel beads in a TOMY microtube mixer (2×20 s), and stored at 4° C. until use. […] Administration began at two or six weeks post-infection as indicated. At time of sacrifice, the left lobe and accessory right lobe of the lung were homogenized in PBS+0.05% Tween 80 and serial dilutions plated on 7H10 agar plates with 100 μg/ml cycloheximide for bacterial load determination. The remaining three right lobes were fixed in 4% PFA in PBS. One lobe was used for histological analysis by standard hematoxylin and eosin (H&E) staining (Tufts Comparative Pathology Services). A Nikon Eclipse E400 with a SPOT insight color digital camera was used to image the histology samples.

Mtb [7] = test: Mtb growth assay in cholesterol media (OD600); format: cell-based, Mycobacterium tuberculosis; details: compared to C6
[8] = test system: murine bone marrow derived macrophages phagosome; test: Phagosomal maturation assays with sensor beads; format: cell-based, mouse; details: 10 μM
Experimental: Carboxyfluorescein (pH readout), DQ-BSA/Alexa Fluor 594 (AF594) (proteolysis readout), and 10,10′-Bis[3-carboxylpropyl]-9,9′-biacridinium (BAC)/AF594 (Cl^− readout) beads were generated as previously described (Podinovskaia et al, 2013; Tan et al, 2013; Tan et al, 2017; Yates et al, 2008). Bone marrow-derived macrophages were isolated from C57BL/6J mice (Jackson Laboratories) and maintained as described above. 2×10^5 macrophages/well were seeded into 96-well clear bottom black plates, and utilized in assays one-two days post-seeding. […] Assay buffer consisted of PBS, pH 7.2, supplemented with 5% FBS, 5 mM dextrose, 1 mM CaCl2, 2.7 mM KCl, and 0.5 mM MgCl2 in the case of assays with the carboxyfluorescein or DQ-BSA/AF594 beads (Buter et al, 2019; Dutta et al, 2020). For assays with the BAC/AF594 beads, assay buffer consisted of PBS, pH 7.2, supplemented with 5% FBS, 5 mM dextrose, 1 mM calcium acetate, 1.35 mM K2SO4, and 0.5 mM MgSO4 (Tan et al, 2013). Sensor beads at ˜2-5 beads/macrophage in appropriate assay buffer were finally added, with data acquisition on a Biotek Synergy H1 microplate reader with bottom read signal detection started within 2-3 minutes of bead addition. Excitation/emission wavelengths were 450 nm/520 nm and 490 nm/520 nm for carboxyfluorescein, 490 nm/520 nm for DQ-BSA, 365 nm/505 nm for BAC, and 590 nm/617 nm for AF594. Each experiment was run with a total of 3-5 replicate wells/condition, with temperature maintained at 37° C. throughout the assay. Wells were read every 2 minutes for 2 hours for the carboxyfluorescein bead assays, every 2 minutes for 4 hours for the DQ-BSA/AF594 bead assays, and every 1 minute for 2 hours for the BAC/AF594 bead assays. Analyses of the results were performed as previously described (Buter et al, 2019; Dutta et al, 2020; Podinovskaia et al, 2013; Tan et al, 2013).

[9] = PBS, pH 7.4, aqueous buffer, kinetic from dmso stock, Table 2

**Q.** What does the source list for `O=C(c1cnc2ccccn12)N1CCCC(CCc2cccc(C(F)(F)F)c2)C1` (stereo not shown) [Compound C5, Imidazo[1,2-a]pyridin-3-yl(3-(3-(trifluoromethyl)phenethyl)piperidin-1-yl)methanone]?
**A.** rv2390c′::GFP reporter signal upon Mtb exposure to high [Cl−] (in words) ([1]; 10 μM, 250 mM NaCl): increased rv2390c′::GFP reporter signal; rv2390c′::GFP response phenotype ([1]; screen hits, high chloride (250 mM NaCl, pH 6.4)): Increases induction in high; Mtb growth in J774 cells (in words) (Mtb in J774 cells; 10 μM, 6 days post-infection): Mtb growth inhibition; inhibition at 10 µM (Mtb in J774 cells; Mycobacterium tuberculosis, J774CELLS, J774, 144 h, read-out: % inhibition compared to Rif in J774 at 10 μM): 50.9 ± 3.2%; inhibition at 20 µM (Mtb in J774 cells; Mycobacterium tuberculosis, J774CELLS, J774, 144 h, read-out: % inhibition compared to Rif in J774 at 20 μM): 55%; Mtb bacterial load / growth in primary murine BMDM (in words) [2]: significant decrease in bacterial load; solubility kinetic ([3]; pH 7.4 phosphate buffered saline (PBS)): 6.67 µM (≈ 2.68 µg/mL); MLM t1/2 [4]: 4.98 min; AUC0-5 h ([5]; single 5 mg/kg oral (po) dose, plasma, CD-1 mice (n=2)): 42 ng·h/mL

**Q.** For `CCSc1ncc(CN2CCN(c3nc4ccc(C#N)cc4o3)CC2)cn1` [JSF-4538, 2-(4-((2-(ethylthio)pyrimidin-5-yl)methyl)piperazin-1-yl)benzo[d]oxazole-6-carbonitrile], which “rv2390c′::GFP Cl− response phenotype” value [1] is on record?
**A.** Its value is “Y”.

**Q.** And the “% Reduction of Intracellular Infection (J774.1 cells) at 10 μM cmpd” value (Mtb in J774 cells)?
**A.** The value was 36.4 ± 2.6%.

**Q.** What about the half-life [4] of the same compound?
**A.** The half-life was 25.5 min.

**Q.** What about the Kp at 5 h [5] of the same compound?
**A.** Its Kp at 5 h is 0.3.

**Q.** And the AUC(0-t) ([5]; plasma)?
**A.** Its AUC(0-t) is 98700 ng·h/mL.

**Q.** What about the “Mtb growth in vivo (lung CFUs)” value (Mtb [6]) of the same compound?
**A.** The value was “inhibits Mtb growth in vivo”.

**Q.** What does the source list for `CCSc1ncc(CN2CCN(c3nc4cc(F)c(F)cc4o3)CC2)cn1` [JSF-4525, 2-(4-((2-(ethylthio)pyrimidin-5-yl)methyl)piperazin-1-yl)-5,6-difluorobenzo[d]oxazole]?
**A.** rv2390c′::GFP Cl− response phenotype [1]: Y; % Reduction of Intracellular Infection (J774.1 cells) at 10 μM cmpd (Mtb in J774 cells): 46.3 ± 2.9^b %; Inhibition of Mtb growth in J774 cells phenotype (Mtb in J774 cells): Y; solubility kinetic [3, 9]: 0.952 µM (≈ 0.373 µg/mL); half-life [4]: 39.8 min; Kp at 5 h [5]: 0.33; AUC(0-t) ([5]; plasma): 29700 ng·h/mL

**Q.** With `CCSc1ncc(CN2CCN(c3nc4ccc(Cl)cc4o3)CC2)cn1` [JSF-4467, 6-chloro-2-(4-((2-(ethylthio)pyrimidin-5-yl)methyl)piperazin-1-yl)benzo[d]oxazole] as the compound, how does the “rv2390c′::GFP Cl− response phenotype” value [1] read?
**A.** The value was “Y”.

**Q.** And the “% Reduction of Intracellular Infection (J774.1 cells) at 10 μM cmpd” value (Mtb in J774 cells)?
**A.** Its value is 50.6 ± 2.0%.

**Q.** And the “Inhibition of Mtb growth in J774 cells phenotype” value (Mtb in J774 cells)?
**A.** The value was “Y”.

**Q.** And the solubility kinetic [3, 9]?
**A.** The solubility kinetic was 8.3 µM (≈ 3.24 µg/mL).

**Q.** And the half-life [4]?
**A.** The half-life was 54.3 min.

**Q.** What about the Kp at 5 h [5] of the same compound?
**A.** Its Kp at 5 h is 0.36.

**Q.** What about the AUC(0-t) ([5]; plasma) of the same compound?
**A.** The AUC(0-t) was 41700 ng·h/mL.

**Q.** Which “rv2390c′::GFP Cl− response phenotype” value [1] does the source give for `CCSc1ncc(CN2CCN(c3nc4ccccc4[nH]3)CC2)cn1` [JSF-4299, 2-(4-((2-(ethylthio)pyrimidin-5-yl)methyl)piperazin-1-yl)-1H-benzo[d]imidazole] here?
**A.** The value was “Y”.

**Q.** And the “Inhibition of Mtb growth in J774 cells phenotype” value (Mtb in J774 cells)?
**A.** The value was “Y”.

**Q.** And the “Growth inhibition in cholesterol media phenotype” value (Mtb [7])?
**A.** Its value is “Y”.

**Q.** And the “macrophage phagosomal proteolytic activity” value ([8]; DQ-BSA/AF594 beads)?
**A.** Its value is “decrease in the extent of proteolysis”.

**Q.** And the macrophage phagosomal acidification ([8]; carboxyfluorescein beads)?
**A.** Its macrophage phagosomal acidification is “delay in acidification”.
